The subject of one test is mutant forms of PDGFR. In words: Activity against mutant PDGFR (stated). In kind it is biochemical.
In test [1] the test system is LNCaP prostate carcinoma cells. Description: Apoptosis assays (morphology, PARP cleavage immunoblot). In kind it is cell-based. The following applies: 48 hours. The protocol: Induction of apoptosis by MP-470 (Compound III-1-3) was further evaluated in LNCaP prostate carcinoma cells using three different assays. First, cells were treated with MP-470 at a variety of concentrations, with or without addition of Tarceva® (erlotinib) for 48 hours. Cells were then examined for the morphological characteristics of apoptosis (membrane blebbing, nuclear fragmentation, etc.) and scored according to a binary scale (apoptotic versus non-apoptotic).
As a more quantifiable means of determining apoptosis induction, cells were also lysed and total protein was used in an immunoblot assay for poly-[ADP ribose] polymerase (PARP) cleavage, a hallmark of apoptosis.
(In general: In western blotting, separated proteins are transferred to a membrane and probed.)

The target of another test is c-Kit (Homo sapiens, UniProt P10721). In words: Autophosphorylation assay with γ-32P-ATP. The format is biochemical. As to conditions: FIG. 28A. As to the method:
(§1) Enzymes were incubated with the appropriate concentration of inhibitor and radiolabeled γ-^32P-ATP. After 30 minutes, the reaction mixtures were electrophoresed on an acrylamide gel and autophosphorylation, quantitated by the amount of radioactivity incorporated into the enzyme, was assayed.

The target of another test is PDGFRa (Homo sapiens, UniProt P16234). In words: Autophosphorylation assay with γ-32P-ATP. The format is biochemical. As to conditions: FIG. 28B. As to the method: as §1
PDGFRa, sequence (P16234 24-1089): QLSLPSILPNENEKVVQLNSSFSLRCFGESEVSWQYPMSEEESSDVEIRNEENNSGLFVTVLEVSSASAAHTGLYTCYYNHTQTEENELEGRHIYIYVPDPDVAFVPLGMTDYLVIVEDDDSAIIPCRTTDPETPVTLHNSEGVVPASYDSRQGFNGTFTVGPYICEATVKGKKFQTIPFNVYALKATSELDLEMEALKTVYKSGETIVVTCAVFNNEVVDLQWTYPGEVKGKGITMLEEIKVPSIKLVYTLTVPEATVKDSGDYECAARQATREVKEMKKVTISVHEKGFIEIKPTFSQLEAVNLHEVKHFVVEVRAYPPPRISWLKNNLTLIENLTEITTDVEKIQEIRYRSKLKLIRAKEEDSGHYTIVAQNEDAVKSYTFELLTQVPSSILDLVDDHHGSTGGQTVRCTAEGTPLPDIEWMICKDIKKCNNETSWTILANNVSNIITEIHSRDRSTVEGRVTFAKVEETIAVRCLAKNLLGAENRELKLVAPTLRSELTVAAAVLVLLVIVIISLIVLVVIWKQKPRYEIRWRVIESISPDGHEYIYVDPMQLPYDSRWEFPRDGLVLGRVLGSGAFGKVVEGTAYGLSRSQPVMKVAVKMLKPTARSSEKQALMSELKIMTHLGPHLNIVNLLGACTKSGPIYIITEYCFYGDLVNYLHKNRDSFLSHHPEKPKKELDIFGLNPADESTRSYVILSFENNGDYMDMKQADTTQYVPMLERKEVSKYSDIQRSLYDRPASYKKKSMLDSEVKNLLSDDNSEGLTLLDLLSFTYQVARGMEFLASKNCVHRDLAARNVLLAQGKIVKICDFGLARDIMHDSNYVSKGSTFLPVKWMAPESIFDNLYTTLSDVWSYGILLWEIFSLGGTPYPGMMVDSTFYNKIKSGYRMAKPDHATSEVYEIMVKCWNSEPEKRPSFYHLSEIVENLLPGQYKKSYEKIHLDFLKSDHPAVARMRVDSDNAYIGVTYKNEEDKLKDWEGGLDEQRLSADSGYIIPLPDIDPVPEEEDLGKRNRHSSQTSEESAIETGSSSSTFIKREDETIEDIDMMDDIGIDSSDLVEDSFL
The test system of another test is LNCaP tumors. In words: Xenograft study. As to conditions: MP-470/Tarceva® in combination, 18 days treatment, FIG. 35. In kind it is in vivo, mice. As to the method: A xenograft study was carried out in order to evaluate the combined effects of MP-470 (Compound III-1-3) and Tarceva® in vivo. LNCaP cells were injected into immunocompromised mice and allowed to develop into measurable tumors, at which point treatment was initiated. Mice were allocated to one of four groups and treated with vehicle, MP-470 (referred to in FIG. 35 as HPK56), Tarceva®, or MP-470/Tarceva® in combination, as indicated. […] The results of these studies are shown in graphical form in FIG. 35.

A further test relates to LNCaP prostate cells. In words: MTT assay. In kind it is cell-based. The following applies: Homo sapiens, read-out: IC50 (cell survival reduced to 50% of vehicle-treated controls), FIG. 30. As to the method: An MTT assay was performed to determine the number of viable cells in each well for each concentration of compound, and also for a set of vehicle controls (DMSO).

Test [2] concerns c-Met autophosphorylation in NIH 3T3 cells. In words: Immunoblot for phospho-Met. In kind it is cell-based. The protocol: (§2) MP-470 (Compound III-1-3) has inhibitory effects on a number of receptor tyrosine kinases. In order to evaluate these effects at the cellular level, immunoblot analysis was performed on lysates from cells treated with MP470, with or without the addition of the EGFR inhibitor Tarceva®. Lysates were assayed for general tyrosine kinase activity, as well as the specific phosphorylation of c-Met and Akt. Briefly, NIH 3T3 cells were pretreated with drugs as indicated for 4 hours, then treated with pervanadate for a further 30 minutes. Immunoblot detection was carried out with antibodies for phosphotyrosine, phospho-Met and phospho-Akt (S473), as well as total c-Met and Akt. Beta-actin was used as a loading control.

In test [3] the test system is general tyrosine phosphorylation in NIH 3T3 cells. Description: Immunoblot for phosphotyrosine. In kind it is cell-based. The protocol: as §2
The subject of test [4] is Akt phosphorylation in LNCaP prostate carcinoma cells. Description: Immunoblot for phospho-Akt (S473). The format is cell-based. The following applies: 48 hours. The protocol:
LNCaP prostate carcinoma cells were treated with MP-470, in combinations with Tarceva® and Gleevec®, for 48 hours. Following incubation, cells were lysed and total protein subjected to immunoblot analysis for total Akt and phospho-Akt (S473).

For test [5], the system named is pancreatic cancer cell lines MIAPaCa-2 and PANC-1. Description: Cancer cell cytotoxicity assay, range over both pancreatic lines. As to conditions: potency order. The format is cell-based. The protocol: To validate the hypothesis that the designed c-kit/PDGFR tyrosine kinase inhibitors mediate GIST882 cell killing and PDGFR-mediated cell killing of pancreatic cancer cell lines (CFPAC-1, PANC-1 and MIA PaCa-2), an in vitro cytotoxicity assay was performed. The GIST882 cell line used in this study has a c-kit gain-of-function mutation (K642E). […] First the cells were cultured. GIST882 cells were provided by Dr. Jonathan A. Fletcher (Dana-Farber Cancer Institute, Boston, Mass.). PANC-1 and MIAPaCa-2 cells were provided by Dr. Daniel Von Hoff (Arizona Cancer Center, Tucson, Ariz.). […] All the cell lines were incubated in a humidified incubator at 37° C. with 5% CO2 atmosphere.
After incubation for 4 days at 37° C. in a humidified incubator, the cells were fixed with 10% Trichloroacetic acid solution (Catalog No. 490-10, Sigma). Subsequently, they were labeled with 0.04% Sulforhodamine B (S9012, Sigma) in 1% acetic acid. […] The absorbance of each well was read on a plate reader (Wallac Vector^2, PerkinElmer) at the wavelength of 570 nm. Data were expressed as the percentage of survival of control calculated from the absorbance corrected for background absorbance. The surviving percent of cells was determined by dividing the mean absorbance values of the […] by the mean absorbance values of the control and multiplying by 100.

A further test has as its target CDK1 (Homo sapiens, UniProt P06493). In words: Kinase-Glo Luminescent Kinase Assay (Examples 27, 33). In kind it is biochemical. As to the method: (§3) The following conditions were used:
(§4) The protein serine-threonine kinases cAMP PK, MKK6 and Cdk1 were tested alongside Aurora-2 kinase to evaluate the activity of compound (II-2-6) against these protein kinases. Briefly, in this assay kinase activity is determined by quantifying the amount of ATP remaining in solution following the kinase reaction by measuring the relative light units (RLU) produced by luciferase using a luminometer. Percent activity was determined for individual compounds by comparing luminometer readings of drug-treated reactions to controls containing no drug (RLUNo Inhib) and no Aurora-2 enzyme (RLUNo Kinase) in the following equation: […]
(In general: Kinase-Glo measures the ATP left after a reaction by luminescence.)

Another test concerns the target MKK6 (Homo sapiens, UniProt P52564). The description is as above. In kind it is biochemical. The protocol: as §3, §4
The next test deals with Aurora-A (Homo sapiens, UniProt O14965). As to conditions: 0.1 μM ATP, 30 μM Kemptide. As to the method: [drawing 74] enzyme assays were performed using the Kinase-Glo™ Luminescent Kinase Assay from Promega Corporation (Madison, Wis.). The following conditions were used: [table] Enzymatic reactions were allowed to progress for 2 hours at 30° C., then assayed for kinase activity according to manufacturer protocol.
Aurora-A, sequence (O14965 whole entry): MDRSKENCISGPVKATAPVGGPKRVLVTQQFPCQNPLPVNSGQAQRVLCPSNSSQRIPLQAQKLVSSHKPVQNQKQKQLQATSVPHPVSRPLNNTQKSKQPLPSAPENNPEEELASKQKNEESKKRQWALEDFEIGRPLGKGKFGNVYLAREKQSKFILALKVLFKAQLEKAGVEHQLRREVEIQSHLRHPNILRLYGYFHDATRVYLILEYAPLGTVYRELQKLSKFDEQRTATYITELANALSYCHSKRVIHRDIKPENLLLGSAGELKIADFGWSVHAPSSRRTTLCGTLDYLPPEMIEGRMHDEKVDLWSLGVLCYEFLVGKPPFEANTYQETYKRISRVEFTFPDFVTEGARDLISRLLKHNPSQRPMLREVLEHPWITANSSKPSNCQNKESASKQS

For orientation: IC50 means the concentration that gives 50% inhibition.

SMILES strings stand for the structures.

CDK1, sequence (P06493 whole entry, species assumed): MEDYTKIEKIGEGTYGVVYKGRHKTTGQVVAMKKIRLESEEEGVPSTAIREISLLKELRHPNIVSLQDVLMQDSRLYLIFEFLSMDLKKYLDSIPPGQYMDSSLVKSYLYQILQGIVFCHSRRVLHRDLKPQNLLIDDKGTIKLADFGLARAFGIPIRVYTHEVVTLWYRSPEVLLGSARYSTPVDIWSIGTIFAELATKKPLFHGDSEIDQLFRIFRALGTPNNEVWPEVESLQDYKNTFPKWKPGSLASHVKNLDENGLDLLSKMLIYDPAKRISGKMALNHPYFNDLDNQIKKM
CDK1, sequence (P14635 whole entry partner, species assumed): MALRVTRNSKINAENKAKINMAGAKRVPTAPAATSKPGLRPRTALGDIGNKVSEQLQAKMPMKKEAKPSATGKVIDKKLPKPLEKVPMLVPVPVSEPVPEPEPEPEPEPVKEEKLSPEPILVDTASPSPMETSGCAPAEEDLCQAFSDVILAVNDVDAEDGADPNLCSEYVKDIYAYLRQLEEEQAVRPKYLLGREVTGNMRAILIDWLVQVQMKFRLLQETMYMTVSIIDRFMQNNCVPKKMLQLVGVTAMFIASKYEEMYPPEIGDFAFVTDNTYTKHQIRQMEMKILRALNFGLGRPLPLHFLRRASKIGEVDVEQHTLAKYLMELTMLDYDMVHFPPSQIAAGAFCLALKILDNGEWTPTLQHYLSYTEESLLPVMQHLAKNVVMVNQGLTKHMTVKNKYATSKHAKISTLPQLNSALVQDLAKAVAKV
MKK6, sequence (P52564 whole entry, species assumed): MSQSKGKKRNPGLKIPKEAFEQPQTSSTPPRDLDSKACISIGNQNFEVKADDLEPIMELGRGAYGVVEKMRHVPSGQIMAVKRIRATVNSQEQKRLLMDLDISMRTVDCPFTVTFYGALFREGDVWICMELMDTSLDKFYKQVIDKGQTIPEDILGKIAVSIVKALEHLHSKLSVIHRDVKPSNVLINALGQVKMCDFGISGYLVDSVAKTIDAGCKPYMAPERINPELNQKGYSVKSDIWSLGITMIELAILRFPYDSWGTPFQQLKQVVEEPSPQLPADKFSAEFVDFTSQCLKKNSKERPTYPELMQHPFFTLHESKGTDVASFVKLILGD
c-Kit, sequence (P10721 26-976): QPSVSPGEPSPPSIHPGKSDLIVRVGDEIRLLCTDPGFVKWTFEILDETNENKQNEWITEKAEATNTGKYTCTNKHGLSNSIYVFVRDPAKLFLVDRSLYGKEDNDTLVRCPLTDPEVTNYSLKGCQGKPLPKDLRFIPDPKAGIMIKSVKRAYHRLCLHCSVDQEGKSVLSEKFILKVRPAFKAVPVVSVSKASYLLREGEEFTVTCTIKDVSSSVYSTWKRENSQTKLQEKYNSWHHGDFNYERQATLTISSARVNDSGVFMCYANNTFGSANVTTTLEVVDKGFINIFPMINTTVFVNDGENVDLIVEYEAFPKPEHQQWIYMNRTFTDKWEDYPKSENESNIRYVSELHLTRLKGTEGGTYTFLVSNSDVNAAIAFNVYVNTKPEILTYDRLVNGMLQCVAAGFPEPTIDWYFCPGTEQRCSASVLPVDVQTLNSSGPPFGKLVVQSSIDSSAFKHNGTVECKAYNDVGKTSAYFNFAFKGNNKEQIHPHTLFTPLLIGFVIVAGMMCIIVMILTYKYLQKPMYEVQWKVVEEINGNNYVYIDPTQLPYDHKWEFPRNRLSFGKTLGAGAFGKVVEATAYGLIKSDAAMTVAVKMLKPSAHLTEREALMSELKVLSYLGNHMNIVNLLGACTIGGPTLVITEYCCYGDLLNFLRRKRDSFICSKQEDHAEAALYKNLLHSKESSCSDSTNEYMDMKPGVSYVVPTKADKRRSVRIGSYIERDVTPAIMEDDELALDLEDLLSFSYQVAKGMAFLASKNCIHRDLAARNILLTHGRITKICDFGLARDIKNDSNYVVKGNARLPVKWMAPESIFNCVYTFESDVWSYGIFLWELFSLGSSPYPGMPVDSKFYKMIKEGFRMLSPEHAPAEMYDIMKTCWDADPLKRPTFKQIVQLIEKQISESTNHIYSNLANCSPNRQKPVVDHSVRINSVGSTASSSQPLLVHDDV

Turning to `S=C(NCc1ccc2c(c1)OCO2)N1CCN(c2ncnc3c2oc2ccccc23)CC1` [HPK56, 4-Benzo[4,5]furo[3,2-d]pyrimidin-4-yl-piperazine-1-carbothioic acid (benzo[1,3]dioxol-5-ylmethyl)-amide], the “activity against mutant forms of PDGFR (in words)” value in the test on mutant forms of PDGFR is on record as “low nanomolar”. Besides, the apoptosis induction result is “dose-dependent increase in apoptosis” in [1] (MP-470 alone) and “enhanced” in [1] (MP-470 in the presence of erlotinib). In addition, the “inhibition of c-Kit autophosphorylation (in words)” value on c-Kit is “dose-dependent”. At PDGFRa, the “inhibition of PDGFRa autophosphorylation (in words)” value is listed as “dose-dependent”. Besides, the tumor growth result in the test with LNCaP tumors is on record as “slowed tumor growth to nearly zero”. Also, the IC50 was ~5 µM in the test with LNCaP prostate cells and 2.1 to 3 µM in [5]. The “activating autophosphorylation of c-Met” value in test [2] (NIH 3T3, 4 hours, agent alone) is given as “reduced”; in [2] (NIH 3T3, MP-470 in combination with Tarceva®), “reduced”. Moreover, the general tyrosine phosphorylation result in test [3] is given as “reduced”. The “reduction of phosphorylation of Akt” value in test [4] (MP-470 and Tarceva® in combination) is “enhanced”. Besides, the “phosphorylation of Akt” value in test [4] (agent alone) is recorded as “reduced in a dose-dependent manner”.

Turning to `COc1cc2[nH]c3ncnc(N4CCN(C(=S)Nc5ccc(S(=O)(=O)Nc6ncccn6)cc5)CC4)c3c2cc1OC` [HPK62, 4-(6,7-Dimethoxy-9H-1,3,9-triaza-fluoren-4-yl)-piperazine-1-carbothioic acid [4-(pyrimidin-2-ylsulfamoyl)-phenyl]-amide], the half-maximal inhibitory concentration (IC50) was determined as 22.3 µM at CDK1 (CDK1, 0.1 μM ATP, 30 μM Kemptide); 6.2 µM at MKK6 (MKK6, 0.1 μM ATP, 30 μM Kemptide); 0.9 µM on Aurora-A. Besides, the “kinase inhibitory activity (in words)” value on CDK1 (Cdk1, FIG. 27) is reported as “inhibitory activity”; at MKK6 (MKK6, FIG. 27) it was “inhibitory activity”.

The record behind these values is US8552018B2, “Substituted tricyclic compounds as protein kinase inhibitors” (Arizona Board of Regents on behalf of the University of …, priority 2003, dated 2013).
